Results as given in patent publication US9718905B2, “Polythiophene, water-soluble electrically conductive polymer using it, and method for producing it” (TOSOH CORPORATION, priority 2012, dated 2017).

Tests used:
[1] = Storage and handling in air; format: physicochemical
[2] = Water solubility of thiophene compound (monomer); format: physicochemical
Procedure: The thiophene compound used as the material is more preferably one having water solubility to such an extent that it is dissolved in water at room temperature or with heating in an amount of at least 0.5 wt %.
The thiophene compound used as a material is more preferably one having water solubility to such an extent that it is soluble in water at room temperature or with heating in an amount of at least 0.5 wt %.

| storage and handling in air [1] | water solubility ([2]; at room temperature) | water solubility ([2]; temperature not stated) | Structure (SMILES) |
| --- | --- | --- | --- |
| could be stored and handled in air | at least 1 wt % | – | CN(CCS(=O)(=O)[O-])CC1COc2cscc2O1.[Na+] (stereo not drawn) [Example 2, Sodium N-methyl-N-(2,3-dihydro-thieno[3,4-b][1,4]dioxin-2-ylmethyl)-2-aminoethanesulfonate] |
| could be stored and handled in air | at least 1 wt % | – | O=S(=O)([O-])CC1COc2cscc2O1.[Na+] (stereo not drawn) [Example 3, Sodium 2,3-dihydro-thieno[3,4-b][1,4]dioxin-2-ylmethanesulfonate] |
| could be stored and handled in air | at least 1 wt % | – | O=S(=O)([O-])CCCCCCC1COc2cscc2O1.[Na+] (stereo not drawn) [Example 4, sodium 6-(2,3-dihydro-thieno[3,4-b][1,4]dioxin-2-yl)-1-hexanesulfonate] |
| could be stored and handled in air | – | at least 1 wt % | O=S(=O)([O-])c1ccc(OCC2COc3cscc3O2)cc1.[K+] (stereo not drawn) [Example 17, Potassium O-(2,3-dihydro-thieno[3,4-b][1,4]dioxin-2-ylmethyl)-4-phenolsulfonate] |
| could be stored and handled in air | – | at least 1% | O=S(=O)([O-])c1ccc(OCC2COc3cscc3O2)cc1.[Na+] (stereo not drawn) [Example 18, sodium O-(2,3-dihydro-thieno[3,4-b][1,4]dioxin-2-ylmethyl)-4-phenolsulfonate] |

| Structure (SMILES) | storage and handling in air [1] | water solubility ([2]; at room temperature) | water solubility ([2]; temperature not stated) |
| --- | --- | --- | --- |
| O=S(=O)([O-])CCNCC1COc2cscc2O1.[K+] (stereo not drawn) [Example 1, Potassium N-(2,3-dihydro-thieno[3,4-b][1,4]dioxin-2-ylmethyl)-2-aminoethanesulfonate] | could be stored and handled in air | at least 1 wt % | – |
